Data published in patent US11667602B2, “Compounds and their use” (AstraZeneca AB, priority 2020, dated 2023).
Converted amounts (≈) assume the structure as drawn.

Key:
human RXFP1 = target: T1, human RXFP1 (Homo sapiens, UniProt Q9HBX9); test: RXFP1 Hu cAMP (Test A); assay type: cell-based; set-up: expressed in transfected cells; host or cells: Jump-In T-REx CHO-K1 cells (ThermoFisher), induced with 10 ng/ml doxycycline for 24 h; conditions: RXFP1 Hu cAMP; for EC50: read-out: Test A EC50
T1 sequence (Q9HBX9 1-757): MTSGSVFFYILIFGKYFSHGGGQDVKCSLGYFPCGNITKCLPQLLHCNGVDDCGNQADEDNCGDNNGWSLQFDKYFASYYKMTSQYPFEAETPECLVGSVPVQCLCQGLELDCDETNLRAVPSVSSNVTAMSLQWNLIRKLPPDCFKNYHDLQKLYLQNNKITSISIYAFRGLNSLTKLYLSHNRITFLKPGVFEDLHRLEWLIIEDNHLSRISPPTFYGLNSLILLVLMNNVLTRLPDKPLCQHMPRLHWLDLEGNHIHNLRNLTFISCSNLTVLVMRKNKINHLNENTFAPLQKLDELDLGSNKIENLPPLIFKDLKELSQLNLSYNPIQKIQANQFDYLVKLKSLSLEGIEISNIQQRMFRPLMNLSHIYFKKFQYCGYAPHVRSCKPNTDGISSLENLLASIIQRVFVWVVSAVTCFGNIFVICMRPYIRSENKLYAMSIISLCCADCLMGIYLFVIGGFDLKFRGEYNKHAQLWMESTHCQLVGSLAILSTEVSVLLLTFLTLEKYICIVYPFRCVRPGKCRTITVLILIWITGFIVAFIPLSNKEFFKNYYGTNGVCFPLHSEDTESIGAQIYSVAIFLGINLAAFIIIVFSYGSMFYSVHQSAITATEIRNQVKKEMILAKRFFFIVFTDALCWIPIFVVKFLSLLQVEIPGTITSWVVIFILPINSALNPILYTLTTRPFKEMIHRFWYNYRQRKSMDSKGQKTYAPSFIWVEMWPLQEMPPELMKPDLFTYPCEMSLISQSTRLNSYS
In short: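 CHO-K1 (Jump-In T-REx), RXFP1 induced w/ 10 ng/ml doxycycline 24 h, cryopreserved. 0.5 mM IBMX final. cAMP by HTRF, 2 h RT, std curve.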

[1] = Human Hepatocyte Stability (Test D); assay type: in vitro ADME; conditions: human, cryopreserved pooled human hepatocytes (LiverPool 10-Donor), geometric mean if run multiple times
In short: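 Pooled 10-donor cryopreserved human hepatocytes (≥80% viable) in L-15 medium at 0.25×10^6 cells per 0.25 mL well. Compound added from 100 μM acetonitrile solution; incubated at 37 °C with shaking, acetonitrile-quenched, LC-MS analysed. Clint (μL/min/10^6 cells) from ln % parent vs time slope; geometric mean of repeat runs.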

Solubility (Test F) = assay type: physicochemical; conditions: arithmetic mean if run multiple times
Procedure: The assay was conducted according to the Solubility Assay described in pages 164-167 of Wernevik, J. et al., “A Fully Integrated Assay Panel for Early Drug Metabolism and Pharmacokinetics Profiling”, Assay and Drug Development Technologies, 2020, 18(4), 157-179. Data are reported in Table 36 as solubility ([…]. Where the assay was run multiple times for the same compound, the arithmetic mean is reported.

[2] = Human Liver Microsomal Stability (Test C); assay type: in vitro ADME; conditions: human, liver microsomes
In short: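 Human liver microsome incubation per the Wernevik et al. integrated DMPK panel protocol. Intrinsic clearance reported as CLint in μl/min/mg protein, averaged arithmetically over repeat runs.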

[3] = Rat Hepatocyte Stability (Test E); assay type: in vitro ADME; conditions: rat, hepatocytes, geometric mean if run multiple times
In short: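 Run per the published AstraZeneca-type rat hepatocyte stability protocol (Wernevik et al. panel). Values are mean intrinsic clearance, Clint in μl/min/10^6 cells; geometric mean used for repeated runs.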

[4] = Human Plasma Protein Binding (Test B); assay type: in vitro ADME; conditions: fraction unbound (fu)
In short: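 Human plasma protein binding run per the published Wernevik et al. (2020) integrated DMPK panel protocol. Values are fraction unbound (fu, % free); repeat runs averaged arithmetically.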

Row | Structure (SMILES) | Test A Sinf (human RXFP1) [%] | EC50 (human RXFP1) [nM] | hepatocyte CLint at 1 µM [1] [µL/min/1e6 cells] | solubility (Solubility (Test F)) [µM] | microsomal CLint [2] [µL/min/mg] | hepatocyte CLint [3] [µL/min/1e6 cells] | Test B Human Plasma Protein Binding (% free) [4] [% free]
1 | COc1cc(F)c(-c2ncc(CCC(=O)O)s2)cc1C(=O)N[C@@H]1[C@H]2CC[C@H](C2)[C@@H]1C(=O)Nc1cccc(S(=O)(=O)C(F)(F)F)c1 [Example 243] | 96 | 99 | 26 | 900 (≈ 603 µg/mL) | 58 | 110 | 2.2
2 | COc1cc(F)c(-c2ccc(CCC(=O)O)nn2)cc1C(=O)N[C@@H]1[C@H]2CC[C@H](C2)[C@@H]1C(=O)Nc1cccc(S(=O)(=O)C(F)(F)F)c1 [Example 245] | 104 | 640 | 13 | 980 (≈ 651 µg/mL) | 45 | 15 | 5
3 | COc1cc(F)c(-c2ccc(S(N)(=O)=O)cc2)cc1C(=O)N[C@@H]1[C@H]2CC[C@H](C2)[C@@H]1C(=O)Nc1cccc(S(=O)(=O)C(F)(F)F)c1 [Example 248] | 108 | 220 | 18 | 2 (≈ 1.34 µg/mL) | 74 | 32 | <3.3
4 | COc1cc(F)c(-c2ccn(CCC(=O)O)c(=O)c2)cc1C(=O)N[C@@H]1[C@H]2CC[C@H](C2)[C@@H]1C(=O)Nc1cccc(S(=O)(=O)C(F)(F)F)c1 [Example 249] | 113 | 320 | 11 | 190 (≈ 129 µg/mL) | 43 | 15 | 3.4
5 | COc1cc(F)c(-c2ccc(C(=O)O)cc2)cc1C(=O)N[C@@H]1[C@H]2CC[C@H](C2)[C@@H]1C(=O)Nc1cccc(S(=O)(=O)C(F)(F)F)c1 [Example 250] | 101 | 190 | 32 | 900 (≈ 571 µg/mL) | 16 | 18 | <0.32
6 | COc1cc(F)c(-c2cnn(CCC(=O)O)c2)cc1C(=O)N[C@@H]1[C@H]2CC[C@H](C2)[C@@H]1C(=O)Nc1cccc(S(=O)(=O)C(F)(F)F)c1 [Example 255] | 101 | 550 | 13 | 1000 (≈ 653 µg/mL) | 26 | 12 | 2
7 | COc1cc(F)c(-c2ccc(CCC(=O)O)nc2)cc1C(=O)N[C@@H]1[C@H]2CC[C@H](C2)[C@@H]1C(=O)Nc1cccc(S(=O)(=O)C(F)(F)F)c1 [Example 258, 3-(5-(2-Fluoro-4-methoxy-5-(((1S,2R,3S,4R)-3-((3-((trifluoromethyl)sulfonyl)phenyl)carbamoyl)bicyclo[2.2.1]heptan-2-yl)carbamoyl)phenyl)pyridin-2-yl)propanoic acid] | 106 | 120 | 30 | > 1000 | 65 | 35 | 1.7
8 | COc1cc(F)c(-c2ccc(C(N)=O)cc2)cc1C(=O)N[C@H]1[C@@H](C(=O)Nc2cccc(S(=O)(=O)C(F)(F)F)c2)[C@@H]2C=C[C@H]1C2 [Example 270, 6-Fluoro-4-methoxy-N3-((1R,2R,3S,4S)-3-((3-((trifluoromethyl)sulfonyl)phenyl)carbamoyl)bicyclo[2.2.1]hept-5-en-2-yl)-[1,1′-biphenyl]-3,4′-dicarboxamide] | 107 | 120 | 32 | 2 (≈ 1.26 µg/mL) | 120 | 38 | <0.26
9 | COc1cc(F)c(-c2cnn(CC(=O)O)c2)cc1C(=O)N[C@H]1[C@@H](C(=O)Nc2cccc(S(=O)(=O)C(F)(F)F)c2)[C@@H]2C=C[C@H]1C2 [Example 271, 2-(4-(2-Fluoro-4-methoxy-5-(((1R,2R,3S,4S)-3-((3-((trifluoromethyl)sulfonyl)phenyl)carbamoyl)bicyclo[2.2.1]hept-5-en-2-yl)carbamoyl)phenyl)-1H-pyrazol-1-yl)acetic acid] | 98 |  | 3.7 | 920 (≈ 586 µg/mL) | < 3 | 7 | 0.81
10 | COc1cc(F)c(-c2ccc(C[C@H](C(=O)O)N(C)C)cc2)cc1C(=O)N[C@@H]1[C@H]2CC[C@H](C2)[C@@H]1C(=O)Nc1cccc(S(=O)(=O)C(F)(F)F)c1 [Example 292, (R)-2-(Dimethylamino)-3-(2′-fluoro-4′-methoxy-5′-(((1S,2R,3S,4R)-3-((3-((trifluoromethyl)sulfonyl)phenyl)carbamoyl)bicyclo[2.2.1]heptan-2-yl)carbamoyl)-[1,1′-biphenyl]-4-yl)propanoic acid] | 110 | 77 | 4.6 | 18 (≈ 12.7 µg/mL) | 24 | 14 | 1.2
11 | COc1cc(F)c(-c2ccc(CC(=O)O)cc2)cc1C(=O)N[C@@H]1CCC[C@@H]1C(=O)Nc1cccc(S(=O)(=O)C(F)(F)F)c1 [Example 320] | 119 | 460 | 11 | > 1000 | 14 | 9.6 | 0.67
12 | COc1cc(F)c(-c2ncc(CCC(=O)O)cn2)cc1C(=O)N[C@@H]1[C@H]2CC[C@H](C2)[C@@H]1C(=O)Nc1cccc(S(=O)(=O)C(F)(F)F)c1 [Example 323, 3-(2-(2-Fluoro-4-methoxy-5-(((1S,2R,3S,4R)-3-((3-((trifluoromethyl)sulfonyl)phenyl)carbamoyl)bicyclo[2.2.1]heptan-2-yl)carbamoyl)phenyl)pyrimidin-5-yl)propanoic acid] | 108 | 420 | 16 | 850 (≈ 565 µg/mL) | 58 | 21 | 9.3
13 | COc1cc(C#N)c(-c2ccc(OCC(=O)O)cc2)cc1C(=O)N[C@@H]1[C@H]2CC[C@H](C2)[C@@H]1C(=O)Nc1cccc(S(=O)(=O)C(F)(F)F)c1 [Example 329, 2-((2′-Cyano-4′-methoxy-5′-(((1S,2R,3S,4R)-3-((3-((trifluoromethyl)sulfonyl)phenyl)carbamoyl)bicyclo[2.2.1]heptan-2-yl)carbamoyl)-[1,1′-biphenyl]-4-yl)oxy)acetic acid] | 108 | 140 | 5.6 | 1000 (≈ 672 µg/mL) | 30 | 26 | 0.81
14 | COc1cc(F)c(O[C@H]2CC[C@@](C)(C(=O)O)CC2)cc1C(=O)N[C@@H]1CCC[C@]1(F)C(=O)Nc1cccc(S(=O)(=O)C(F)(F)F)c1 [Example 355] | 114 | 37 | 8 | 430 (≈ 285 µg/mL) | 32 | 19 | 2.1
